Laboratory results reported in BindingDB's records for doi:10.1021/acs.biochem.7b00151 (University of Missouri, 2017).

These molecules were tested against T1, Tyrosine-protein phosphatase non-receptor type 1 [1-322] (Human, UniProt P18031) (assay: PTP1B Activity Assay). Conditions: pH 7.
T1 construct: 1-322
T1 sequence (P18031 whole entry): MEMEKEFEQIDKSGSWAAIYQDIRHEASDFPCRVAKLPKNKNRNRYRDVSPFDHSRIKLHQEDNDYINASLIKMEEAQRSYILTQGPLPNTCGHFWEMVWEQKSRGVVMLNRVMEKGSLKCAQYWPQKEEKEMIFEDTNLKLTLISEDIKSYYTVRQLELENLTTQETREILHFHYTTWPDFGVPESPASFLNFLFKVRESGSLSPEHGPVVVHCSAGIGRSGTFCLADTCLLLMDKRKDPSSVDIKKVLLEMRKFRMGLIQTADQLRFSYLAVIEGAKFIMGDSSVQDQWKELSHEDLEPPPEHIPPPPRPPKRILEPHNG
Method: The test compounds were introduced into the solutions as stock solutions dissolved in DMSO. After 20−30 s, the amount of PTP1B activity in the assays was assessed by measuring the increase in absorbance at 410 nm as a function of time resulting from the enzyme-mediated conversion of p-NPP to p-nitrophenolate.
`Cc1ccc(-c2ccccc2)cc1N1CC(=O)NS1(=O)=O` [5-(4-Methyl[1,1'-biphenyl]-3-yl)-1,2,5-thiadiazolidin-3-one 1,1-Dioxide (2b)] was tested, and the IC50 was 77 µM and the Ki was 38.5 µM.
`Cc1ccc(-c2ccc(NC(=O)CBr)cc2)cc1N1CC(=O)NS1(=O)=O` [2-Bromo-N-[3'-(1,1-dioxido-4-oxo-1,2,5-thiadiazolidin-2-yl)-4'-methyl[1,1'-biphenyl]-4-yl]-acetamide (5a)] showed an IC50 of 54 µM and a Ki of 27 µM.
With `CC(=O)Nc1ccc(-c2ccc(C)c(N3CC(=O)NS3(=O)=O)c2)cc1` [N-[3'-(1,1-Dioxido-4-oxo-1,2,5-thiadiazolidin-2-yl)-4'-methyl[1,1'-biphenyl]-4-yl]acetamide (5b)] the IC50 was 64 µM and the Ki was 32 µM.
